Numbers after ± are expanded uncertainties.
Columns and labels:
[1] = xn = mol fraction of the nth substance listed; conditions: 101 kPa, Liquid; for speed of sound: Sing-around technique in a fixed-path interferometer
[2] = refractive index (Na D-line) (dimensionless); xn = mol fraction of the nth substance listed; conditions: 101 kPa, Liquid, Standard Abbe refractometry

Cc1ccccc1O [2-methylphenol] + CCCCCCCCCCO
Conditions	mass density, 298.15 K [kg/m3]	mass density, 303.15 K [kg/m3]	mass density, 308.15 K [kg/m3]	refractive index, 298.15 K	refractive index, 303.15 K	refractive index, 308.15 K	speed of sound, 298.15 K [m/s]	speed of sound, 303.15 K [m/s]	speed of sound, 308.15 K [m/s]
[1], x1 = 0.0861	837.502 ± 0.53	834.018 ± 0.54	830.549 ± 0.54	–	–	–	1385.1 ± 1.1	1368 ± 1.1	1351.1 ± 1.1
[1], x1 = 0.1516	846.353 ± 0.51	842.829 ± 0.52	839.316 ± 0.53	–	–	–	1389.3 ± 1.1	1372.1 ± 1.1	1355.2 ± 1.1
[1], x1 = 0.2077	854.319 ± 0.49	850.761 ± 0.5	847.206 ± 0.51	–	–	–	1393 ± 1.1	1375.7 ± 1.1	1358.8 ± 1.1
[1], x1 = 0.2717	863.895 ± 0.47	860.293 ± 0.48	856.691 ± 0.49	–	–	–	1397.2 ± 1.1	1379.9 ± 1.1	1363.1 ± 1
[1], x1 = 0.334	873.784 ± 0.45	870.135 ± 0.46	866.475 ± 0.47	–	–	–	1401.6 ± 1.1	1384.3 ± 1.1	1367.4 ± 1
[1], x1 = 0.4103	886.741 ± 0.43	883.035 ± 0.43	879.298 ± 0.44	–	–	–	1407.6 ± 1.1	1390.3 ± 1.1	1373.2 ± 1
[1], x1 = 0.4797	899.465 ± 0.4	895.693 ± 0.41	891.869 ± 0.41	–	–	–	1413.7 ± 1.1	1396.5 ± 1	1379.2 ± 1
[1], x1 = 0.5545	914.345 ± 0.37	910.475 ± 0.38	906.559 ± 0.38	–	–	–	1421.3 ± 1.1	1404 ± 1	1386.8 ± 1
[1], x1 = 0.6165	927.694 ± 0.34	923.735 ± 0.35	919.727 ± 0.36	–	–	–	1428.4 ± 1.1	1411.1 ± 1	1394.1 ± 1
[1], x1 = 0.6875	944.316 ± 0.31	940.209 ± 0.32	936.089 ± 0.32	–	–	–	1437.8 ± 1.1	1420.7 ± 1	1403.7 ± 1
[1], x1 = 0.7538	961.343 ± 0.28	957.079 ± 0.28	952.828 ± 0.29	–	–	–	1448.2 ± 1.1	1431 ± 1	1414.1 ± 1
[1], x1 = 0.8245	981.399 ± 0.24	976.894 ± 0.24	972.475 ± 0.25	–	–	–	1461.2 ± 1.1	1444 ± 1	1426.8 ± 1
[1], x1 = 0.8811	999.121 ± 0.2	994.379 ± 0.21	989.769 ± 0.22	–	–	–	1473.5 ± 1.1	1456.2 ± 1	1439.1 ± 1
[1], x1 = 0.941	1019.75 ± 0.24	1014.71 ± 0.23	1009.79 ± 0.22	–	–	–	1488.8 ± 1.1	1471.6 ± 1.1	1454.4 ± 1
[1], x1 = 1	1042.32 ± 0.27	1036.94 ± 0.26	1031.55 ± 0.25	–	–	–	1504.6 ± 1.1	1487.4 ± 1.1	1470.3 ± 1
[2], x1 = 0.0861	–	–	–	1.43944 ± 0.00056	1.43742 ± 0.00057	1.43507 ± 0.00057	–	–	–
[2], x1 = 0.1516	–	–	–	1.44351 ± 0.00057	1.44139 ± 0.00058	1.43893 ± 0.00059	–	–	–
[2], x1 = 0.2077	–	–	–	1.44727 ± 0.00058	1.44505 ± 0.0006	1.44249 ± 0.00061	–	–	–
[2], x1 = 0.2717	–	–	–	1.45185 ± 0.00061	1.44952 ± 0.00061	1.44685 ± 0.00062	–	–	–
[2], x1 = 0.334	–	–	–	1.45667 ± 0.00063	1.45426 ± 0.00063	1.45145 ± 0.00064	–	–	–
[2], x1 = 0.4103	–	–	–	1.46311 ± 0.00065	1.46058 ± 0.00066	1.45761 ± 0.00066	–	–	–
[2], x1 = 0.4797	–	–	–	1.46956 ± 0.00068	1.46691 ± 0.00068	1.46379 ± 0.00068	–	–	–
[2], x1 = 0.5545	–	–	–	1.47719 ± 0.00069	1.47444 ± 0.0007	1.47117 ± 0.0007	–	–	–
[2], x1 = 0.6165	–	–	–	1.48412 ± 0.0007	1.48132 ± 0.00071	1.47792 ± 0.00072	–	–	–
[2], x1 = 0.6875	–	–	–	1.49283 ± 0.00072	1.49001 ± 0.00073	1.48643 ± 0.00075	–	–	–
[2], x1 = 0.7538	–	–	–	1.50182 ± 0.00074	1.49892 ± 0.00075	1.49522 ± 0.00076	–	–	–
[2], x1 = 0.8245	–	–	–	1.51242 ± 0.00074	1.50948 ± 0.00076	1.50566 ± 0.00078	–	–	–
[2], x1 = 0.8811	–	–	–	1.52175 ± 0.00074	1.51879 ± 0.00077	1.51489 ± 0.0008	–	–	–
[2], x1 = 0.941	–	–	–	1.53252 ± 0.00075	1.52952 ± 0.00078	1.52555 ± 0.00081	–	–	–
[2], x1 = 1	–	–	–	1.544 ± 0.0007	1.54099 ± 0.00078	1.53699 ± 0.00087	–	–	–

Reference: the NIST ThermoML archive (doi:10.1021/je100362p)
